Experimental data from the kinase profiling compilation of Christmann-Franck et al. (2016).

Legend:
Experiment in all cases: radiometric filter-binding kinase assay, Kinase HotSpot
Conditions in all cases: compound 0.5 µM; ATP 10 µM
AURKA (human) = AURKA (human) (UniProt O14965)
AURKB (human) = AURKB (human) (UniProt Q96GD4)
CAMK2G (human) = CAMK2G (human) (UniProt Q13555)
CLK4 (human) = CLK4 (human) (UniProt Q9HAZ1)
DAPK3 (human) = DAPK3 (human) (UniProt O43293)
EPHB1 (human) = EPHB1 (human) (UniProt P54762)
FGFR2 (human) = FGFR2 (human) (UniProt P21802)
FGFR3 (human) = FGFR3 (human) (UniProt P22607)
FLT3 (human) = FLT3 (human) (UniProt P36888)
FRK (human) = FRK (human) (UniProt P42685)
GRK4 (human) = GRK4 (human) (UniProt P32298)
GSK3B (human) = GSK3B (human) (UniProt P49841)
INSRR (human) = INSRR (human) (UniProt P14616)
IRAK1 (human) = IRAK1 (human) (UniProt P51617)
JAK3 JH1 JH2 (human) = JAK3 JH1 JH2 (human) (UniProt P52333)
MAP3K9 (human) = MAP3K9 (human) (UniProt P80192)
MAPK10 (human) = MAPK10 (human) (UniProt P53779)
MAPK13 (human) = MAPK13 (human) (UniProt O15264)
MAPK14 (human) = MAPK14 (human) (UniProt Q16539)
MAPK3 (human) = MAPK3 (human) (UniProt P27361)
MARK1 (human) = MARK1 (human) (UniProt Q9P0L2)
Chain of MARK1 (human) (Q9P0L2 whole entry, looked up): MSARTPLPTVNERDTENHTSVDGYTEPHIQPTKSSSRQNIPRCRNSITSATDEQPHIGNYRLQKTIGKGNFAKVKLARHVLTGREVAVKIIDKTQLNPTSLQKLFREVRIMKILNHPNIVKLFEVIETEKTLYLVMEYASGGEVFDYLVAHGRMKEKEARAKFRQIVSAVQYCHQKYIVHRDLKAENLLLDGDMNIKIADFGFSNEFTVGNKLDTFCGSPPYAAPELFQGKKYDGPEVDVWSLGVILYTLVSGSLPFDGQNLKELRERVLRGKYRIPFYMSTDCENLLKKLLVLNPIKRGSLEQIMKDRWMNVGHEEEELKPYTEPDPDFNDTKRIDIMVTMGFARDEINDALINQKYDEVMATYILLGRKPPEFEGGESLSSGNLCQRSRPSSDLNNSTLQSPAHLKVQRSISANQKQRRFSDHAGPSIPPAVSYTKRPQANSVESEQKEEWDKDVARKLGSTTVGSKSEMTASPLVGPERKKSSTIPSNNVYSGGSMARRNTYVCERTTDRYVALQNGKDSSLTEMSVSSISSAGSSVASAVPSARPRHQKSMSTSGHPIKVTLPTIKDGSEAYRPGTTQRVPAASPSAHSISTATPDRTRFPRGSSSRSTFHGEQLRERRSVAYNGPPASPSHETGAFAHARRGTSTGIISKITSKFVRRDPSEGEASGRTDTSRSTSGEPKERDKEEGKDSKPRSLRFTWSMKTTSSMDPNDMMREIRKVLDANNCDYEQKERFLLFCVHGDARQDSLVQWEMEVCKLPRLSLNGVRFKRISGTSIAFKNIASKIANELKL

MARK2 (human) = MARK2 (human) (UniProt Q7KZI7)
MARK3 (human) = MARK3 (human) (UniProt P27448)
MYLK2 (human) = MYLK2 (human) (UniProt Q9H1R3)
PAK6 (human) = PAK6 (human) (UniProt Q9NQU5)
Chain of PAK6 (human) (Q9NQU5 whole entry, looked up): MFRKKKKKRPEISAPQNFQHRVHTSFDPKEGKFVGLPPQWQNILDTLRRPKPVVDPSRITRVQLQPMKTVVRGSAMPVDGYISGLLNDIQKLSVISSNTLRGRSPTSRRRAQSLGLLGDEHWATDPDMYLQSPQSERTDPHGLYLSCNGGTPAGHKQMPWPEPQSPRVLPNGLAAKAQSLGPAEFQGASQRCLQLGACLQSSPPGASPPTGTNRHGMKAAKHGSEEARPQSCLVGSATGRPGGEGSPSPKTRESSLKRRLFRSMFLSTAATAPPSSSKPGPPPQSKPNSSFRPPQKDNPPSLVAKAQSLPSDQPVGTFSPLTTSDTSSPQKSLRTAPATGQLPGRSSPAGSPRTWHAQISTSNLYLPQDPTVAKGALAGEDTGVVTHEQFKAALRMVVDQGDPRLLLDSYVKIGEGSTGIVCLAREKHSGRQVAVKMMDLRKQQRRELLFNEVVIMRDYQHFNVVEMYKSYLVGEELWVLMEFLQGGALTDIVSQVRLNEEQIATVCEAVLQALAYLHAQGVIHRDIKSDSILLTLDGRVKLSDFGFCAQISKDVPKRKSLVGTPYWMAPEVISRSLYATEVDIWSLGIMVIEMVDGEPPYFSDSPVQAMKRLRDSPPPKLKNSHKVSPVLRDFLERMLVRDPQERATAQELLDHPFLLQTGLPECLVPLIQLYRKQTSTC

PHKG1 (human) = PHKG1 (human) (UniProt Q16816)
PHKG2 (human) = PHKG2 (human) (UniProt P15735)
PIM2 (human) = PIM2 (human) (UniProt Q9P1W9)
PKN1 (human) = PKN1 (human) (UniProt Q16512)
PLK3 (human) = PLK3 (human) (UniProt Q9H4B4)
Chain of PLK3 (human) (Q9H4B4 whole entry, looked up): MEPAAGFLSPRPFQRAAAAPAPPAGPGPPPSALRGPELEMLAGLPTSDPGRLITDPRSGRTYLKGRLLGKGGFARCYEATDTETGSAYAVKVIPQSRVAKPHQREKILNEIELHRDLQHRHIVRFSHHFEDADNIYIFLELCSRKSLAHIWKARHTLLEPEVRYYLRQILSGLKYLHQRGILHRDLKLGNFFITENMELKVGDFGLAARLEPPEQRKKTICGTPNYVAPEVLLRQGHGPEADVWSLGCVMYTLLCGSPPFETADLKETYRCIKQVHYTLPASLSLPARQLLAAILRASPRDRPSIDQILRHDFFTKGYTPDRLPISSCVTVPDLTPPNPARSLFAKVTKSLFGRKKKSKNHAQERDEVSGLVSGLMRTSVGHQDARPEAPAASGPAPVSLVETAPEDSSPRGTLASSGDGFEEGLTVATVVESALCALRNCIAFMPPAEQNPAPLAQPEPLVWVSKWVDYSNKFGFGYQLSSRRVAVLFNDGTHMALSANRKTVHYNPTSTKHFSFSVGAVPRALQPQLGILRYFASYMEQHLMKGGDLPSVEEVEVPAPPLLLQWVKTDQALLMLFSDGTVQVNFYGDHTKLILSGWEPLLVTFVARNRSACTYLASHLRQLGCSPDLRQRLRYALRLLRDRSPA

PNCK (human) = PNCK (human) (UniProt Q6P2M8)
PRKCB1 (human) = PRKCB1 (human) (UniProt P05771)
PRKCG (human) = PRKCG (human) (UniProt P05129)
PRKCZ (human) = PRKCZ (human) (UniProt Q05513)
PTK2 (human) = PTK2 (human) (UniProt Q05397)
RPS6KA5 KD2 (human) = RPS6KA5 KD2 (human) (UniProt O75582)
SIK2 (human) = SIK2 (human) (UniProt Q9H0K1)
ULK1 (human) = ULK1 (human) (UniProt O75385)
Chain of ULK1 (human) (O75385 whole entry, looked up): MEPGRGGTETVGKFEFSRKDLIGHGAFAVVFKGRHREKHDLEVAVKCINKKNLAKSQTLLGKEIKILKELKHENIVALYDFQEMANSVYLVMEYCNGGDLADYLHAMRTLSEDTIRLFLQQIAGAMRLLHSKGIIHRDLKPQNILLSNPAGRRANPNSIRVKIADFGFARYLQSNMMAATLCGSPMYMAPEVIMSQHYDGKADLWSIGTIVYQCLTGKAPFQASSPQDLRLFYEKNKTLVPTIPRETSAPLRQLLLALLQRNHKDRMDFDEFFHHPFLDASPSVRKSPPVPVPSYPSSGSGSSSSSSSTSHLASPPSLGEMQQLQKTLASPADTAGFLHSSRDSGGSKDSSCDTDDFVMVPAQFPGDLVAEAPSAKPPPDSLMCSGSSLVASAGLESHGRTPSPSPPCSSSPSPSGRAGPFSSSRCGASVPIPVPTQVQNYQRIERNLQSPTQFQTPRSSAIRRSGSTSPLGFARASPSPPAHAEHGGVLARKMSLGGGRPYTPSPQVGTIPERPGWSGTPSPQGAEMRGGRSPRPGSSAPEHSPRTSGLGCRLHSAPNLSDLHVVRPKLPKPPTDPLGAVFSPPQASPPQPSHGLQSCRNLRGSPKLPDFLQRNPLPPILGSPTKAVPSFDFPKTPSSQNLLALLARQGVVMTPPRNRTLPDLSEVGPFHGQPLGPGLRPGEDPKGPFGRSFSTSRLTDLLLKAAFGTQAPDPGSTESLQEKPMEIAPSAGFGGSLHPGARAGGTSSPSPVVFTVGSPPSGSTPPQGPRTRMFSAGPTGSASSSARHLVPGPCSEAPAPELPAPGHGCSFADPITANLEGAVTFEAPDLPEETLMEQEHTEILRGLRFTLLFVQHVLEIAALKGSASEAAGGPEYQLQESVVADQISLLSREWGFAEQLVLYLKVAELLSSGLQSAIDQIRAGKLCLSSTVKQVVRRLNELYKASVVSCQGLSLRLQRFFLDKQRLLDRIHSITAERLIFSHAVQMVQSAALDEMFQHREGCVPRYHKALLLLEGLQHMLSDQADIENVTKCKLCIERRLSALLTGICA

WEE1 (human) = WEE1 (human) (UniProt P30291)
WNK3 (human) = WNK3 (human) (UniProt Q9BYP7)
Chain of WNK3 (human) (Q9BYP7 whole entry, looked up): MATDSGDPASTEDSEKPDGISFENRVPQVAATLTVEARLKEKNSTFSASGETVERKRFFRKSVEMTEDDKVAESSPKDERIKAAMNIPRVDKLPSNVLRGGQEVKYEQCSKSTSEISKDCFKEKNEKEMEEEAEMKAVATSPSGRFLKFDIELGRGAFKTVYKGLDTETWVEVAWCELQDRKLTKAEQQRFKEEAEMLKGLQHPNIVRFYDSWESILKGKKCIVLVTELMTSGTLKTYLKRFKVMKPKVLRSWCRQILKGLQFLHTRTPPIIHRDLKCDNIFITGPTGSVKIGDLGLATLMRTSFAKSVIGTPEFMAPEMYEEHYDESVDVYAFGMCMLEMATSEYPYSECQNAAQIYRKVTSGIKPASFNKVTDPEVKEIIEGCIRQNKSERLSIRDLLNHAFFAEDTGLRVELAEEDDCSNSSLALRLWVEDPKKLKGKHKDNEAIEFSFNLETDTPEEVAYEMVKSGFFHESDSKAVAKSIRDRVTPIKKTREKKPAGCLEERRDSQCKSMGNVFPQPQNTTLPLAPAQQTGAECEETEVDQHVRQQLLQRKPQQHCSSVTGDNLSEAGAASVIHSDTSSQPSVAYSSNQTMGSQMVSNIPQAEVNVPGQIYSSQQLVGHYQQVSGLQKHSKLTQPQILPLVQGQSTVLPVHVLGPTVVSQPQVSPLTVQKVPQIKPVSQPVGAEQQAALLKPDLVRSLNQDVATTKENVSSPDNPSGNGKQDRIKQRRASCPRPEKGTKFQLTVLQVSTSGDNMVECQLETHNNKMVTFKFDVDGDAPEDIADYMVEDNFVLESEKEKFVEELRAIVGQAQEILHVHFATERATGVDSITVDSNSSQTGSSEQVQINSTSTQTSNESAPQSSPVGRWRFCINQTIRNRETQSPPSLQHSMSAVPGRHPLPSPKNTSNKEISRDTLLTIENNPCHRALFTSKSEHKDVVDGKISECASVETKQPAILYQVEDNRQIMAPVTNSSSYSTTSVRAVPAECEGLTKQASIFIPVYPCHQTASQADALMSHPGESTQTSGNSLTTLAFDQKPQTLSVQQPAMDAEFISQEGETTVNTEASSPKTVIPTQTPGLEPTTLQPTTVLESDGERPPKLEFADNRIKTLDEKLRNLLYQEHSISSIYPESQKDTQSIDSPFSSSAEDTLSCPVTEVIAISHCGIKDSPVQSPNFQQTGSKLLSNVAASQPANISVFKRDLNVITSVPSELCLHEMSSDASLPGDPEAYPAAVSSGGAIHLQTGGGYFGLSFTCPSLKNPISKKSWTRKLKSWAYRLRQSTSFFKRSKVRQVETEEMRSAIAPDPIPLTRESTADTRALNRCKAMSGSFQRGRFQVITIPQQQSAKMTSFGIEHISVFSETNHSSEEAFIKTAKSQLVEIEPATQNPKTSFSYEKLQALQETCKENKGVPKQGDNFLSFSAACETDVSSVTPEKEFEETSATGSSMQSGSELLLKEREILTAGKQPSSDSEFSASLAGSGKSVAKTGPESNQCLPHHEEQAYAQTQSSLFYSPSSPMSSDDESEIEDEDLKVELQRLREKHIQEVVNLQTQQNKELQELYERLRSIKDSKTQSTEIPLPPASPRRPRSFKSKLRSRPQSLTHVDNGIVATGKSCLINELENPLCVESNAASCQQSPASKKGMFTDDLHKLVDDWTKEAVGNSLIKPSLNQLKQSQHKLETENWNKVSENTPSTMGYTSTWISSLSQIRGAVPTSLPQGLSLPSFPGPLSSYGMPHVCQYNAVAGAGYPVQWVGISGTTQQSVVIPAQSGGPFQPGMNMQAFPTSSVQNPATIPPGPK

ERBB4 (human) = ERBB4 (human) (UniProt Q15303)
GRK7 (human) = GRK7 (human) (UniProt Q8WTQ7)

Q: What does the source list for `Nc1nnc2[nH]c3ccccc3nc1-2`?
A: residual activity (AURKA (human)): 111%; residual activity (AURKB (human)): 101%; residual activity (CAMK2G (human)): 108%; residual activity (CLK4 (human)): 86.9%; residual activity (DAPK3 (human)): 98.2%; residual activity (EPHB1 (human)): 92.3%; residual activity (FGFR2 (human)): 98.1%; residual activity (FGFR3 (human)): 96.5%; residual activity (FLT3 (human)): 75.9%; residual activity (FRK (human)): 96.8%; residual activity (GRK4 (human)): 98.9%; residual activity (GSK3B (human)): 99.7%; residual activity (INSRR (human)): 89.3%; residual activity (IRAK1 (human)): 88.9%; residual activity (JAK3 JH1 JH2 (human)): 68%; residual activity (MAP3K9 (human)): 97.7%; residual activity (MAPK10 (human)): 92.1%; residual activity (MAPK13 (human)): 101%; residual activity (MAPK14 (human)): 96.6%; residual activity (MAPK3 (human)): 113%; residual activity (MARK1 (human)): 95.7%; residual activity (MARK2 (human)): 110%; residual activity (MARK3 (human)): 102%; residual activity (MYLK2 (human)): 90.5%; residual activity (PAK6 (human)): 96.3%; residual activity (PHKG1 (human)): 86.9%; residual activity (PHKG2 (human)): 96.6%; residual activity (PIM2 (human)): 105%; residual activity (PKN1 (human)): 92%; residual activity (PLK3 (human)): 96.3%; residual activity (PNCK (human)): 102%; residual activity (PRKCB1 (human)): 103%; residual activity (PRKCG (human)): 97.3%; residual activity (PRKCZ (human)): 106%; residual activity (PTK2 (human)): 94.6%; residual activity (RPS6KA5 KD2 (human)): 92.4%; residual activity (SIK2 (human)): 102%; residual activity (ULK1 (human)): 106%; residual activity (WEE1 (human)): 101%; residual activity (WNK3 (human)): 98%

Q: How did the residual activity (AURKA (human)) turn out when `CN([C@@H](Cc1ccc(OS(=O)(=O)c2cccc3cnccc23)cc1)C(=O)N1CCN(c2ccccc2)CC1)S(=O)(=O)c1cccc2cnccc12` was run?
A: 86.2%

Q: And the residual activity (AURKB (human))?
A: 104%

Q: What about the residual activity (CLK4 (human)) of the same molecule?
A: 97.2%

Q: And the residual activity (DAPK3 (human))?
A: 106%

Q: And the residual activity (EPHB1 (human))?
A: 94.2%

Q: What about the residual activity (ERBB4 (human)) of the same molecule?
A: 103%

Q: And the residual activity (FGFR2 (human))?
A: 98.1%

Q: What about the residual activity (FGFR3 (human)) of the same molecule?
A: 98.8%

Q: What about the residual activity (FLT3 (human)) of the same molecule?
A: 103%

Q: And the residual activity (FRK (human))?
A: 101%

Q: What about the residual activity (GRK4 (human)) of the same molecule?
A: 96.5%

Q: And the residual activity (GRK7 (human))?
A: 105%

Q: And the residual activity (GSK3B (human))?
A: 96.6%

Q: What about the residual activity (INSRR (human)) of the same molecule?
A: 94.9%

Q: And the residual activity (IRAK1 (human))?
A: 95.4%

Q: What about the residual activity (JAK3 JH1 JH2 (human)) of the same molecule?
A: 98%

Q: And the residual activity (MAP3K9 (human))?
A: 104%

Q: And the residual activity (MAPK10 (human))?
A: 88.2%

Q: And the residual activity (MAPK13 (human))?
A: 102%

Q: And the residual activity (MAPK14 (human))?
A: 91%

Q: And the residual activity (MAPK3 (human))?
A: 90.6%

Q: What about the residual activity (MARK1 (human)) of the same molecule?
A: 96.7%

Q: And the residual activity (MARK2 (human))?
A: 103%

Q: And the residual activity (MARK3 (human))?
A: 93.7%

Q: What about the residual activity (MYLK2 (human)) of the same molecule?
A: 98.8%

Q: What about the residual activity (PAK6 (human)) of the same molecule?
A: 102%

Q: What about the residual activity (PHKG1 (human)) of the same molecule?
A: 93.4%

Q: What about the residual activity (PHKG2 (human)) of the same molecule?
A: 101%

Q: What about the residual activity (PIM2 (human)) of the same molecule?
A: 98.5%

Q: What about the residual activity (PKN1 (human)) of the same molecule?
A: 105%

Q: What about the residual activity (PLK3 (human)) of the same molecule?
A: 99.3%

Q: What about the residual activity (PNCK (human)) of the same molecule?
A: 99.7%

Q: What about the residual activity (PRKCB1 (human)) of the same molecule?
A: 95.9%

Q: And the residual activity (PRKCG (human))?
A: 95.4%

Q: And the residual activity (PRKCZ (human))?
A: 101%

Q: And the residual activity (PTK2 (human))?
A: 104%

Q: And the residual activity (RPS6KA5 KD2 (human))?
A: 100%

Q: What about the residual activity (SIK2 (human)) of the same molecule?
A: 108%

Q: And the residual activity (ULK1 (human))?
A: 101%

Q: What about the residual activity (WEE1 (human)) of the same molecule?
A: 87.7%

Q: And the residual activity (WNK3 (human))?
A: 101%
